Results: patent publication US10189809B2, “SGC stimulators” (Ironwood Pharmaceuticals, Inc., priority 2010, dated 2019)
Where two headings read alike, the source gives them in different places.

How the values were obtained:
[1] = biological target: T1, soluble guanylate cyclase (sGC) (Homo sapiens (Human), UniProt Q02108+Q02153); experiment: sGC-HEK-cGMP assay run in the absence of SNP (HEK WC assay); assay type: cell-based; settings: compound at 30 μM, absence of SNP
Summary of the method: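 HEK293 cells with endogenous sGC, preincubated 15 min at 37° C with 0.5 mM IBMX, then exposed to test compound 10 min at 37° C without SNP. Cells lysed in 0.1 M HCl; cGMP quantified by LC/MS against a standard curve. EC50 from concentration-response curves.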

[2] = biological target: T1, soluble guanylate cyclase (sGC); experiment: sGC-HEK-cGMP assay run with SNP incubation (HEK WC assay); assay type: cell-based; settings: for HEK WC Assay (fold increase at 30 μM in the presence of 10 μM SNP): compound at 30 μM; for EC50: in the presence of 10 uM SNP
Summary of the method: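 HEK293 cells with endogenous sGC were pretreated with 0.5 mM IBMX for 15 min at 37 °C, then exposed to test compound plus sodium nitroprusside for 10 min at 37 °C.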

[3] = read-out: HEK WC Assay (% Emax at 1 μM with 10 uM SNP)
[4] = read-out: HEK WC Assay (% Emax at 10 μM with 10 uM SNP)
[5] = read-out: HEK WC Assay (% Emax at 30 μM with 10 uM SNP)

T1 sequence (Q02153 whole entry): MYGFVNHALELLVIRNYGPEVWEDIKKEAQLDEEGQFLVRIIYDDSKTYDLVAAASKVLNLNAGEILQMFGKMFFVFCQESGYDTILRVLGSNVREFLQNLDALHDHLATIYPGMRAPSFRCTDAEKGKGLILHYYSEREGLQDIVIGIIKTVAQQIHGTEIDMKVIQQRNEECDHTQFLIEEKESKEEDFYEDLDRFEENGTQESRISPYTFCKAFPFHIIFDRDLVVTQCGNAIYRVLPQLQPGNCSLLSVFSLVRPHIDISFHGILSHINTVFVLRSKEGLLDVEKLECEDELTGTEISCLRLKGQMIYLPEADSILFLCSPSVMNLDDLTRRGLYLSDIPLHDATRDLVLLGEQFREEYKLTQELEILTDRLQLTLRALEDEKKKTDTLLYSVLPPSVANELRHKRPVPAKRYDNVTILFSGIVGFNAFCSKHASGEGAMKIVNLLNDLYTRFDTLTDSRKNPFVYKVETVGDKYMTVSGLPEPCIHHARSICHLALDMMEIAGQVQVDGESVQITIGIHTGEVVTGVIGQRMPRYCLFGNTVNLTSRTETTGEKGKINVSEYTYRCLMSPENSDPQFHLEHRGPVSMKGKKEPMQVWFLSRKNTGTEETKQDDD
T1 sequence (Q02108 whole entry): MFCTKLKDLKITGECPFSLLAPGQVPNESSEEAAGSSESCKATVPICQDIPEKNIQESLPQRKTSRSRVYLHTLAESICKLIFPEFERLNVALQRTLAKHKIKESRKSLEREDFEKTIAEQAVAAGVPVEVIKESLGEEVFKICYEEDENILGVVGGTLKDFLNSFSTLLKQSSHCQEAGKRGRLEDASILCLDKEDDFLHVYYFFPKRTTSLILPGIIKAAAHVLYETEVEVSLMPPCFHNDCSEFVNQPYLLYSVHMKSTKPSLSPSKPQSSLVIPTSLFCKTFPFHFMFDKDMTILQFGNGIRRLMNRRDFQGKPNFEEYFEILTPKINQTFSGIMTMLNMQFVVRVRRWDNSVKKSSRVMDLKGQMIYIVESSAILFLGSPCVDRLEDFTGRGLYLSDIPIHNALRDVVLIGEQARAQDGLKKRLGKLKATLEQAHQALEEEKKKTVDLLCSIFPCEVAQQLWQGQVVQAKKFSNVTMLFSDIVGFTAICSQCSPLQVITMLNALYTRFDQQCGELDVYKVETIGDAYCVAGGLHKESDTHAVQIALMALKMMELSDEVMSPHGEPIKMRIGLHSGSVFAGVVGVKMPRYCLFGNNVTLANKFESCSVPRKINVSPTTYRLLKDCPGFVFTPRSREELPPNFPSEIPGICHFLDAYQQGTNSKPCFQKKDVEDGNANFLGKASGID

| HEK WC Assay (fold increase at 30 μM in the absence of SNP) [1] | HEK WC Assay (fold increase at 30 μM in the presence of 10 μM SNP) [2] | EC50 [2] [µM] | Emax [2, 3] [%] | Emax [2, 4] [%] | Emax [2, 5] [%] | SMILES |
| --- | --- | --- | --- | --- | --- | --- |
| E (E = 10 to <20 fold increase) | E (E = 10 to <20 fold increase) | < 20 | 60 to 80 | 60 to 80 | 60 to 80 | CC(C)=CC(=O)Nc1cnc(-c2cc(-c3ccon3)n(Cc3ccccc3F)n2)nc1N [Compound I-240] |
| D (D = 5 to <10 fold increase) | E (E = 10 to <20 fold increase) | < 20 | 40 to 60 | 40 to 60 | 60 to 80 | Nc1nc(-c2cc(-c3ccon3)n(Cc3ccccc3F)n2)ncc1NC(=O)C1(C(F)(F)F)CCC1 [Compound I-243] |
| D (D = 5 to <10 fold increase) | E (E = 10 to <20 fold increase) | 20 to 40 | 20 to 40 | 40 to 60 | 40 to 60 | Nc1nc(-c2cc(-c3ccon3)n(Cc3ccccc3F)n2)ncc1NC(=O)C(F)(F)c1ccccc1 [Compound I-244] |
| D (D = 5 to <10 fold increase) | E (E = 10 to <20 fold increase) | 20 to 40 | – | 60 to 80 | 40 to 60 | O=c1[nH]c2cnc(-c3cc(-c4ccon4)n(Cc4ccccc4F)n3)nc2[nH]1 [Compound I-281] |
| C (C = 2 to <5 fold increase) | D (D = 5 to <10 fold increase) | – | – | 20 to 40 | 20 to 40 | Fc1ccccc1Cn1nc(-c2ccccn2)cc1-c1cnco1 [Compound I-285] |
| B (B = 1 to <2 fold increase) | C (C = 2 to <5 fold increase) | – | – | 0 to 10 | 0 to 10 | Fc1ccccc1Cn1nc(-c2ccccn2)cc1N1CCC1 [Compound I-287] |
| B (B = 1 to <2 fold increase) | B (B = 1 to <2 fold increase) | – | – | 0 to 10 | 0 to 10 | CCOc1cnc(-c2cc(-c3ncccn3)nn2Cc2ccccc2F)o1 [Compound I-292] |

Continued, compound first:

| SMILES | HEK WC Assay (fold increase at 30 μM in the absence of SNP) [1] | HEK WC Assay (fold increase at 30 μM in the presence of 10 μM SNP) [2] | EC50 [2] [µM] | Emax [2, 3] [%] | Emax [2, 4] [%] | Emax [2, 5] [%] |
| --- | --- | --- | --- | --- | --- | --- |
| Nc1nc(-c2cc(-c3ccon3)n(Cc3ccccc3F)n2)ncc1NC(=O)/C=C/c1ccccc1 [Compound I-239] | D (D = 5 to <10 fold increase) | E (E = 10 to <20 fold increase) | < 20 | 40 to 60 | 60 to 80 | 60 to 80 |
| O=S(=O)(c1ccc(F)cc1)c1cnc(-c2cc(-c3ccon3)n(Cc3ccccc3F)n2)nc1O [Compound I-241] | D (D = 5 to <10 fold increase) | E (E = 10 to <20 fold increase) | < 20 | 20 to 40 | 60 to 80 | 40 to 60 |
| Fc1ccccc1Cn1nc(-c2ccccn2)cc1N1CCCC1 [Compound I-288] | C (C = 2 to <5 fold increase) | C (C = 2 to <5 fold increase) | – | – | – | – |
| Fc1ccccc1Cn1nc(-c2ccccn2)cc1-n1cncn1 [Compound I-289] | B (B = 1 to <2 fold increase) | B (B = 1 to <2 fold increase) | – | – | 0 to 10 | 0 to 10 |
| Fc1ccccc1Cn1nc(-c2ncccn2)cc1C1=NCCO1 [Compound I-290] | B (B = 1 to <2 fold increase) | C (C = 2 to <5 fold increase) | – | – | 10 to 20 | 20 to 40 |
| COc1oc(-c2cc(-c3ncccn3)nn2Cc2ccccc2F)nc1C [Compound I-291] | B (B = 1 to <2 fold increase) | B (B = 1 to <2 fold increase) | – | – | 0 to 10 | 0 to 10 |
